Laboratory results: ChEMBL document CHEMBL1201861, “Genomics of Drug Sensitity in Cancer screening data, Wellcome Trust Sanger Institute”
pIC50: −log10 of the molar value.

What was measured:
Assay in all cases: cells
COLO-741 = assay type: functional, cell-based, Homo sapiens; conditions: Homo sapiens, COLO-741
Description: SANGER: Inhibition of human COLO-741 cell growth in a cell viability assay.

COLO-829 = assay type: functional, cell-based, Homo sapiens; conditions: Homo sapiens, COLO-829
Description: SANGER: Inhibition of human COLO-829 cell growth in a cell viability assay.

Calu-3 = assay type: functional, cell-based, Homo sapiens; conditions: Homo sapiens, Calu-3;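 note: growth inhibition of human Calu-3 cells, determined with a cell viability assay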
Description: SANGER: Inhibition of human Calu-3 cell growth in a cell viability assay.

EKVX = assay type: functional, cell-based, Homo sapiens; conditions: Homo sapiens, EKVX;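 note: growth inhibition of human EKVX cells, read out with a cell viability assay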
Description: SANGER: Inhibition of human EKVX cell growth in a cell viability assay.

ES8 = assay type: functional, cell-based, Homo sapiens; conditions: Homo sapiens, ES8;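 note: growth inhibition of human ES8 cells, read out with a cell viability assay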
Description: SANGER: Inhibition of human ES8 cell growth in a cell viability assay.

EW-16 = assay type: functional, cell-based, Homo sapiens; conditions: Homo sapiens, EW-16;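 note: growth inhibition of human EW-16 cells, read out as cell viability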
Description: SANGER: Inhibition of human EW-16 cell growth in a cell viability assay.

GAK = assay type: functional, cell-based, Homo sapiens; conditions: Homo sapiens, GAK;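 note: cell growth inhibition read out by a cell viability assay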
Description: SANGER: Inhibition of human GAK cell growth in a cell viability assay.

GI-ME-N = assay type: functional, cell-based, Homo sapiens; conditions: Homo sapiens, GI-ME-N;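 note: growth inhibition of human GI-ME-N cells, read out with a cell viability assay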
Description: SANGER: Inhibition of human GI-ME-N cell growth in a cell viability assay.

GMS-10 = assay type: functional, cell-based, Homo sapiens; conditions: Homo sapiens, GMS-10;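 note: growth inhibition of GMS-10 cells, read out as cell viability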
Description: SANGER: Inhibition of human GMS-10 cell growth in a cell viability assay.

HCC2218 = assay type: functional, cell-based; conditions: Homo sapiens;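 note: cell viability assay read-out, with IC50 given as the concentration that inhibits growth of the cell line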
Description: SANGER: Inhibition of human HCC2218 cell growth in a cell viability assay.

HCC38 = assay type: functional, cell-based, Homo sapiens; conditions: Homo sapiens, HCC38;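 note: cell viability assay on the human HCC38 cell line, with IC50 marking the concentration that inhibits cell growth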
Description: SANGER: Inhibition of human HCC38 cell growth in a cell viability assay.

HCE-T = assay type: functional, cell-based, Homo sapiens; conditions: Homo sapiens, HCE-T;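 note: cell viability assay read-out, reporting inhibition of HCE-T cell growth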
Description: SANGER: Inhibition of human HCE-T cell growth in a cell viability assay.

HD-MY-Z = assay type: functional, cell-based, Homo sapiens; conditions: Homo sapiens, HD-MY-Z;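 note: growth inhibition of HD-MY-Z cells, read out with a cell viability assay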
Description: SANGER: Inhibition of human HD-MY-Z cell growth in a cell viability assay.

HOP-62 = assay type: functional, cell-based, Homo sapiens; conditions: Homo sapiens, HOP-62;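 note: cell growth inhibition determined with a viability assay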
Description: SANGER: Inhibition of human HOP-62 cell growth in a cell viability assay.

HuP-T3 = assay type: functional, cell-based, Homo sapiens; conditions: Homo sapiens, HuP-T3;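 note: HuP-T3 cell growth inhibition, read out with a cell viability assay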
Description: SANGER: Inhibition of human HuP-T3 cell growth in a cell viability assay.

IST-MES1 = assay type: functional, cell-based, Homo sapiens; conditions: Homo sapiens, IST-MES1;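 note: growth inhibition of IST-MES1 cells, measured with a cell viability assay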
Description: SANGER: Inhibition of human IST-MES1 cell growth in a cell viability assay.

KARPAS-299 = assay type: functional, cell-based; conditions: Homo sapiens
Description: SANGER: Inhibition of human KARPAS-299 cell growth in a cell viability assay.

KP-N-YN = assay type: functional, cell-based; conditions: Homo sapiens;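 note: growth inhibition of KP-N-YN cells, read out with a cell viability assay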
Description: SANGER: Inhibition of human KP-N-YN cell growth in a cell viability assay.

KURAMOCHI = assay type: functional, cell-based; conditions: Homo sapiens;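 note: growth inhibition of KURAMOCHI cells, read out with a cell viability assay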
Description: SANGER: Inhibition of human KURAMOCHI cell growth in a cell viability assay.

L-363 = assay type: functional, cell-based; conditions: Homo sapiens
Description: SANGER: Inhibition of human L-363 cell growth in a cell viability assay.

LB1047-RCC = assay type: functional, cell-based, Homo sapiens; conditions: Homo sapiens, LB1047-RCC;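 note: inhibition of cell growth, determined with a cell viability assay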
Description: SANGER: Inhibition of human LB1047-RCC cell growth in a cell viability assay.

LK-2 = assay type: functional, cell-based, Homo sapiens; conditions: Homo sapiens, LK-2;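 note: growth inhibition of LK-2 cells, read out with a viability assay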
Description: SANGER: Inhibition of human LK-2 cell growth in a cell viability assay.

MZ7-mel = assay type: functional, cell-based, Homo sapiens; conditions: Homo sapiens, MZ7-mel;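 note: growth inhibition of human MZ7-mel cells, measured by a cell viability assay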
Description: SANGER: Inhibition of human MZ7-mel cell growth in a cell viability assay.

NB6 = assay type: functional, cell-based, Homo sapiens; conditions: Homo sapiens, NB6;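 note: growth inhibition of NB6 cells, read out by a cell viability assay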
Description: SANGER: Inhibition of human NB6 cell growth in a cell viability assay.

NCI-H2052 = assay type: functional, cell-based, Homo sapiens; conditions: Homo sapiens, NCI-H2052;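 note: growth inhibition of NCI-H2052 cells, read out with a cell viability assay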
Description: SANGER: Inhibition of human NCI-H2052 cell growth in a cell viability assay.

NCI-H28 = assay type: functional, cell-based, Homo sapiens; conditions: Homo sapiens, NCI-H28;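 note: growth inhibition of human NCI-H28 cells, read out as cell viability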
Description: SANGER: Inhibition of human NCI-H28 cell growth in a cell viability assay.

NCI-N87 = assay type: functional, cell-based, Homo sapiens; conditions: Homo sapiens, NCI-N87;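 note: growth inhibition of human NCI-N87 cells, read out with a cell viability assay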
Description: SANGER: Inhibition of human NCI-N87 cell growth in a cell viability assay.

NOMO-1 = assay type: functional, cell-based; conditions: Homo sapiens;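 note: growth inhibition of human NOMO-1 cells measured by a cell viability assay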
OCI-AML2 = assay type: functional, cell-based; conditions: Homo sapiens;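 note: growth inhibition of OCI-AML2 cells, read out with a cell viability assay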
Description: SANGER: Inhibition of human OCI-AML2 cell growth in a cell viability assay.

OVCAR-5 = assay type: functional, cell-based, Homo sapiens; conditions: Homo sapiens, OVCAR-5;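 note: growth inhibition of human OVCAR-5 cells, read out with a cell viability assay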
Description: SANGER: Inhibition of human OVCAR-5 cell growth in a cell viability assay.

PC-3 = assay type: functional, cell-based, Homo sapiens; conditions: Homo sapiens, PC-3;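 note: cell viability assay measuring growth inhibition of PC-3 cells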
Description: SANGER: Inhibition of human PC-3 cell growth in a cell viability assay.

RD = assay type: functional, cell-based, Homo sapiens; conditions: Homo sapiens, RD
Description: SANGER: Inhibition of human RD cell growth in a cell viability assay.

RPMI-8226 = assay type: functional, cell-based; conditions: Homo sapiens
Description: SANGER: Inhibition of human RPMI-8226 cell growth in a cell viability assay.

RXF 393 = assay type: functional, cell-based; conditions: Homo sapiens;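 note: growth inhibition of human RXF 393 cells, read out with a cell viability assay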
SBC-1 = assay type: functional, cell-based; conditions: Homo sapiens;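 note: cell viability assay measuring growth inhibition of the SBC-1 cell line, IC50 being the concentration that halves growth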
Description: SANGER: Inhibition of human SBC-1 cell growth in a cell viability assay.

SF-295 = assay type: functional, cell-based, Homo sapiens; conditions: Homo sapiens, SF-295; read-out: IC50;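 note: growth inhibition of SF-295 cells, read out with a cell viability assay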
Description: SANGER: Inhibition of human SF295 cell growth in a cell viability assay.

SK-MEL-2 = assay type: functional, cell-based, Homo sapiens; conditions: Homo sapiens, SK-MEL-2;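 note: growth inhibition of human SK-MEL-2 cells measured with a cell viability assay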
Description: SANGER: Inhibition of human SK-MEL-2 cell growth in a cell viability assay.

SKG-IIIa = assay type: functional, cell-based, Homo sapiens; conditions: Homo sapiens, SKG-IIIa;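 note: cell growth inhibition, read out with a cell viability assay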
Description: SANGER: Inhibition of human SKG-IIIa cell growth in a cell viability assay.

SW837 = assay type: functional, cell-based, Homo sapiens; conditions: Homo sapiens, SW837;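 note: growth inhibition of SW837 cells, determined with a cell viability assay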
Description: SANGER: Inhibition of human SW837 cell growth in a cell viability assay.

769-P = assay type: functional, cell-based, Homo sapiens; conditions: Homo sapiens, 769-P
Description: SANGER: Inhibition of human 769-P cell growth in a cell viability assay.

786-0 = assay type: functional, cell-based, Homo sapiens; conditions: Homo sapiens
Description: SANGER: Inhibition of human 786-0 cell growth in a cell viability assay.

8305C = assay type: functional, cell-based, Homo sapiens; conditions: Homo sapiens, 8305C
Description: SANGER: Inhibition of human 8305C cell growth in a cell viability assay.

A2780 = assay type: functional, cell-based, Homo sapiens; conditions: Homo sapiens, A2780;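 note: growth inhibition of A2780 cells, read out with a cell viability assay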
Description: SANGER: Inhibition of human A2780 cell growth in a cell viability assay.

BB30-HNC = assay type: functional, cell-based, Homo sapiens; conditions: Homo sapiens, BB30-HNC;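 note: growth inhibition of the cultured cell line, read out by a cell viability assay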
Description: SANGER: Inhibition of human BB30-HNC cell growth in a cell viability assay.

BHT-101 = assay type: functional, cell-based, Homo sapiens; conditions: Homo sapiens, BHT-101
Becker = assay type: functional, cell-based, Homo sapiens; conditions: Homo sapiens, Becker;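 note: growth inhibition of Becker cells, read out with a cell viability assay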
Description: SANGER: Inhibition of human Becker cell growth in a cell viability assay.

C-33-A = assay type: functional, cell-based, Homo sapiens; conditions: Homo sapiens, C-33-A;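 note: cell viability assay measuring growth inhibition of C-33-A cells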
Description: SANGER: Inhibition of human C-33-A cell growth in a cell viability assay.

CAL-27 = assay type: functional, cell-based, Homo sapiens; conditions: Homo sapiens, CAL-27;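 note: Viability-based readout, IC50 reflecting inhibition of CAL-27 cell growth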
Description: SANGER: Inhibition of human CAL-27 cell growth in a cell viability assay.

TE-10 = assay type: functional, cell-based, Homo sapiens; conditions: Homo sapiens, TE-10;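 note: growth inhibition of TE-10 cells, measured by a cell viability assay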
TE-9 = assay type: functional, cell-based, Homo sapiens; conditions: Homo sapiens, TE-9;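 note: cell growth inhibition, measured with a cell viability readout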
Description: SANGER: Inhibition of human TE-9 cell growth in a cell viability assay.

UMUC3 = assay type: functional, cell-based, Homo sapiens; conditions: Homo sapiens, UMUC3;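 note: growth inhibition of human UM-UC-3 cells, read out with a cell viability assay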
Description: SANGER: Inhibition of human UM-UC-3 cell growth in a cell viability assay.

C[C@]1(O)C[C@@H](c2nc(-c3ccc4ccc(-c5ccccc5)nc4c3)c3c(N)nccn32)C1 [LINSITINIB]
pIC50 (COLO-741): < 5.59
pIC50 (COLO-829): < 5.59
pIC50 (Calu-3): < 5.59
pIC50 (EKVX): 5.87
pIC50 (ES8): < 5.59
pIC50 (EW-16): 6.73
pIC50 (GAK): < 5.59
pIC50 (GI-ME-N): < 5.59
pIC50 (GMS-10): < 5.59
pIC50 (HCC2218): < 5.59
pIC50 (HCC38): < 5.59
pIC50 (HCE-T): < 5.59
pIC50 (HD-MY-Z): < 5.59
pIC50 (HOP-62): < 5.59
pIC50 (HuP-T3): < 5.59
pIC50 (IST-MES1): < 5.59
pIC50 (KARPAS-299): < 5.59
pIC50 (KP-N-YN): < 5.59
pIC50 (KURAMOCHI): < 5.59
pIC50 (L-363): 5.87
pIC50 (LB1047-RCC): < 5.59
pIC50 (LK-2): < 5.59
pIC50 (MZ7-mel): < 5.59
pIC50 (NB6): < 5.59
pIC50 (NCI-H2052): < 5.59
pIC50 (NCI-H28): < 5.59
pIC50 (NCI-N87): < 5.59
pIC50 (NOMO-1): < 5.59
pIC50 (OCI-AML2): < 5.59
pIC50 (OVCAR-5): < 5.59
pIC50 (PC-3): < 5.59
pIC50 (RD): 5.90
pIC50 (RPMI-8226): < 5.59
pIC50 (RXF 393): < 5.59
pIC50 (SBC-1): < 5.59
pIC50 (SF-295): < 5.59
pIC50 (SK-MEL-2): < 5.59
pIC50 (SKG-IIIa): < 5.59
pIC50 (SW837): < 5.59
pIC50 (769-P): < 5.59
pIC50 (786-0): < 5.59
pIC50 (8305C): < 5.59
pIC50 (A2780): < 5.59
pIC50 (BB30-HNC): < 5.59
pIC50 (BHT-101): < 5.59
pIC50 (Becker): < 5.59
pIC50 (C-33-A): < 5.59
pIC50 (CAL-27): < 5.59
pIC50 (TE-10): < 5.59
pIC50 (TE-9): < 5.59
pIC50 (UMUC3): < 5.59

C=CCc1cccc(/C=N/NC(=O)CN2CCN(Cc3ccccc3)CC2)c1O [PAC-1]
pIC50 (COLO-741): < 5.59
pIC50 (COLO-829): < 5.59
pIC50 (Calu-3): < 5.59
pIC50 (EKVX): < 5.59
pIC50 (ES8): < 5.59
pIC50 (EW-16): < 5.59
pIC50 (GAK): < 5.59
pIC50 (GI-ME-N): < 5.59
pIC50 (GMS-10): < 5.59
pIC50 (HCC2218): < 5.59
pIC50 (HCC38): < 5.59
pIC50 (HCE-T): < 5.59
pIC50 (HD-MY-Z): < 5.59
pIC50 (HOP-62): 5.59
pIC50 (HuP-T3): < 5.59
pIC50 (IST-MES1): < 5.59
pIC50 (KARPAS-299): < 5.59
pIC50 (KP-N-YN): < 5.59
pIC50 (KURAMOCHI): < 5.59
pIC50 (L-363): < 5.59
pIC50 (LB1047-RCC): < 5.59
pIC50 (LK-2): < 5.59
pIC50 (MZ7-mel): 5.59
pIC50 (NB6): < 5.59
pIC50 (NCI-H2052): < 5.59
pIC50 (NCI-H28): < 5.59
pIC50 (NCI-N87): < 5.59
pIC50 (NOMO-1): < 5.59
pIC50 (OCI-AML2): < 5.59
pIC50 (OVCAR-5): < 5.59
pIC50 (PC-3): < 5.59
pIC50 (RD): < 5.59
pIC50 (RPMI-8226): < 5.59
pIC50 (RXF 393): < 5.59
pIC50 (SBC-1): < 5.59
pIC50 (SF-295): < 5.59
pIC50 (SK-MEL-2): < 5.59
pIC50 (SKG-IIIa): < 5.59
pIC50 (SW837): < 5.59
pIC50 (769-P): < 5.59
pIC50 (786-0): 6.13
pIC50 (8305C): < 5.59
pIC50 (A2780): < 5.59
pIC50 (BB30-HNC): < 5.59
pIC50 (BHT-101): < 5.59
pIC50 (Becker): < 5.59
pIC50 (C-33-A): < 5.59
pIC50 (CAL-27): < 5.59
pIC50 (TE-10): < 5.59
pIC50 (TE-9): < 5.59
pIC50 (UMUC3): < 5.59

Cc1ccc(Nc2nccc(N(C)c3ccc4c(C)n(C)nc4c3)n2)cc1S(N)(=O)=O [PAZOPANIB]
pIC50 (COLO-741): < 5.10
pIC50 (COLO-829): < 5.10
pIC50 (Calu-3): < 5.10
pIC50 (EKVX): < 5.10
pIC50 (ES8): < 5.10
pIC50 (EW-16): < 5.10
pIC50 (GI-ME-N): < 5.10
pIC50 (GMS-10): < 5.10
pIC50 (HCC2218): < 5.10
pIC50 (HCC38): < 5.10
pIC50 (HCE-T): < 5.10
pIC50 (HD-MY-Z): < 5.10
pIC50 (HOP-62): < 5.10
pIC50 (HuP-T3): < 5.10
pIC50 (IST-MES1): < 5.10
pIC50 (KARPAS-299): < 5.10
pIC50 (KP-N-YN): < 5.10
pIC50 (KURAMOCHI): < 5.10
pIC50 (L-363): < 5.10
pIC50 (LB1047-RCC): 5.45
pIC50 (LK-2): 5.58
pIC50 (MZ7-mel): < 5.10
pIC50 (NB6): < 5.10
pIC50 (NCI-H2052): < 5.10
pIC50 (NCI-H28): < 5.10
pIC50 (NCI-N87): < 5.10
pIC50 (NOMO-1): < 5.10
pIC50 (OCI-AML2): < 5.10
pIC50 (OVCAR-5): < 5.10
pIC50 (PC-3): < 5.10
pIC50 (RD): < 5.10
pIC50 (RPMI-8226): < 5.10
pIC50 (RXF 393): < 5.10
pIC50 (SBC-1): < 5.10
pIC50 (SF-295): < 5.10
pIC50 (SK-MEL-2): < 5.10
pIC50 (SKG-IIIa): < 5.10
pIC50 (SW837): < 5.10
pIC50 (769-P): < 5.10
pIC50 (786-0): < 5.10
pIC50 (8305C): < 5.10
pIC50 (A2780): < 5.10
pIC50 (BB30-HNC): < 5.10
pIC50 (BHT-101): < 5.10
pIC50 (Becker): < 5.10
pIC50 (C-33-A): < 5.10
pIC50 (CAL-27): < 5.10
pIC50 (TE-10): < 5.10
pIC50 (TE-9): < 5.10
pIC50 (UMUC3): < 5.10

Cn1cncc1[C@@](N)(c1ccc(Cl)cc1)c1ccc2c(c1)c(-c1cccc(Cl)c1)cc(=O)n2C [TIPIFARNIB]
pIC50 (COLO-741): 5.18
pIC50 (COLO-829): 4.90
pIC50 (Calu-3): 5.35
pIC50 (EKVX): < 4.80
pIC50 (ES8): 4.98
pIC50 (EW-16): 5.44
pIC50 (GAK): 5.42
pIC50 (GI-ME-N): < 4.80
pIC50 (GMS-10): < 4.80
pIC50 (HCC2218): < 4.80
pIC50 (HCC38): 5.21
pIC50 (HCE-T): 5.10
pIC50 (HD-MY-Z): < 4.80
pIC50 (HOP-62): 5.49
pIC50 (HuP-T3): < 4.80
pIC50 (IST-MES1): 4.84
pIC50 (KARPAS-299): < 4.80
pIC50 (KP-N-YN): < 4.80
pIC50 (KURAMOCHI): 5.32
pIC50 (L-363): < 4.80
pIC50 (LB1047-RCC): < 4.80
pIC50 (LK-2): 5.97
pIC50 (MZ7-mel): 6.14
pIC50 (NB6): < 4.80
pIC50 (NCI-H2052): < 4.80
pIC50 (NCI-H28): < 4.80
pIC50 (NCI-N87): < 4.80
pIC50 (NOMO-1): < 4.80
pIC50 (OCI-AML2): 5.69
pIC50 (OVCAR-5): < 4.80
pIC50 (PC-3): 4.95
pIC50 (RD): 4.92
pIC50 (RPMI-8226): 5.04
pIC50 (RXF 393): < 4.80
pIC50 (SBC-1): < 4.80
pIC50 (SF-295): 5.66
pIC50 (SK-MEL-2): 6.32
pIC50 (SKG-IIIa): < 4.80
pIC50 (SW837): 5.00
pIC50 (769-P): 5.38
pIC50 (786-0): 6.47
pIC50 (8305C): 6.01
pIC50 (A2780): 5.48
pIC50 (BB30-HNC): 6.23
pIC50 (BHT-101): 5.51
pIC50 (Becker): 5.19
pIC50 (C-33-A): 5.35
pIC50 (CAL-27): 5.51
pIC50 (TE-10): 6.09
pIC50 (TE-9): < 4.80
pIC50 (UMUC3): 4.90
